Experiments:
[1] = system: FB1 16 (DNA, aptamer) ATACCAGCTTATTCAATTCATCCAGTAACAAACACATAAGTAACGGCGATATGTCAAAGCGGTATCGGCTACAGATGAGATAGTAAGTGCAATCT; test: magnetic bead binding, percent DNA eluted (fluorescence); details: 100 mM NaCl, 5 mM KCl, 2 mM MgCl2, 1 mM CaCl2; 20 mM Tris pH 7.6, room temperature; immobilised compound; 9-15 pmol DNA, 2 × 10^8 beads
[2] = system: FB1 14 (DNA, aptamer) ATACCAGCTTATTCAATTCTATACGGAGTGGATATCGATCTGTAACGTGAGTGAGATAATGTGATGCATAGTCGTGGAGATAGTAAGTGCAATCT; test: as above; details: 100 mM NaCl, 5 mM KCl, 2 mM MgCl2, 1 mM CaCl2; 20 mM Tris pH 7.6, room temperature; immobilised compound; 9-15 pmol DNA, 2 × 10^8 beads
[3] = system: FB1 32 (DNA, aptamer) ATACCAGCTTATTCAATTAATGTACGATGTGTGGGCAACATGAGTATGTCGTGTGATATCTAGATGAGGTAGCGGTGGAGATAGTAAGTGCAATCT; test: as above; details: 100 mM NaCl, 5 mM KCl, 2 mM MgCl2, 1 mM CaCl2; 20 mM Tris pH 7.6, room temperature; immobilised compound; 9-15 pmol DNA, 2 × 10^8 beads
[4] = system: FB1 39 (DNA, aptamer) ATACCAGCTTATTCAATTAATCGCATTACCTTATACCAGCTTATTCAATTACGTCTGCACATACCAGCTTATTCAATTAGATAGTAAGTGCAATCT; test: magnetic bead binding, fluorescence of eluted DNA; details: 100 mM NaCl, 5 mM KCl, 2 mM MgCl2, 1 mM CaCl2; 20 mM Tris pH 7.6, room temperature; immobilised compound; aptamer 1 nM to 1 μM
[5] = system: FB1 23 (DNA, aptamer) ATACCAGCTTATTCAATTGCGGATGCGTAAATGACGATAAACATAGATGGGGTATATCGCGATGCGACAGGGTGTAGATAGTAAGTGCAATCT; test: magnetic bead binding, percent DNA eluted (fluorescence); details: 100 mM NaCl, 5 mM KCl, 2 mM MgCl2, 1 mM CaCl2; 20 mM Tris pH 7.6, room temperature; immobilised compound; 9-15 pmol DNA, 2 × 10^8 beads
[6] = system: FB1 31 (DNA, aptamer) ATACCAGCTTATTCAATTCGGGGACGTGTATACCAGCTTATTCAATTCACAGTTATGTCCTATACCAGCTTATTCAATTAGATAGTAAGTGCAATCT; test: as above; details: 100 mM NaCl, 5 mM KCl, 2 mM MgCl2, 1 mM CaCl2; 20 mM Tris pH 7.6, room temperature; immobilised compound; 9-15 pmol DNA, 2 × 10^8 beads

## CCCC[C@@H](C)[C@@H](OC(=O)C[C@@H](CC(=O)O)C(=O)O)[C@H](C[C@@H](C)C[C@H](O)CCCC[C@@H](O)C[C@H](O)[C@H](C)N)OC(=O)C[C@@H](CC(=O)O)C(=O)O
[1]
  binding: yes
[2]
  binding: yes
[3]
  binding: yes
[4]
  KD: 100 ± 30 nM
[5]
  binding: yes
[6]
  binding: yes
